Here are results for 14 compounds from ChEMBL document CHEMBL1151499, “Synthesis of a piperidinomethylthiophene derivative as H2-antagonist with inhibitory activity against Helicobacter pylori” (Bioorg Med Chem Lett, 1996).

Values after ≈ are worked out from the molar mass of the structure shown. Bounds are passed on as bounds.

Type in all cases: functional
In one assay the target is Histamine H2 receptor (Cavia porcellus, UniProt P47747). Briefly: Histamine H2 receptor antagonistic activity.
A further assay has as its system Helicobacter pylori. Briefly: Compound was tested for inhibitory activity against Helicobacter pylori No. 9470.
Assay [1] has as its target Histamine H2 receptor (Cavia porcellus) (UniProt P47747). Kind of assay: Compound was tested for Histamine H2 receptor antagonistic activity at 10 ug/ml.

Chain of Histamine H2 receptor (P47747 whole entry): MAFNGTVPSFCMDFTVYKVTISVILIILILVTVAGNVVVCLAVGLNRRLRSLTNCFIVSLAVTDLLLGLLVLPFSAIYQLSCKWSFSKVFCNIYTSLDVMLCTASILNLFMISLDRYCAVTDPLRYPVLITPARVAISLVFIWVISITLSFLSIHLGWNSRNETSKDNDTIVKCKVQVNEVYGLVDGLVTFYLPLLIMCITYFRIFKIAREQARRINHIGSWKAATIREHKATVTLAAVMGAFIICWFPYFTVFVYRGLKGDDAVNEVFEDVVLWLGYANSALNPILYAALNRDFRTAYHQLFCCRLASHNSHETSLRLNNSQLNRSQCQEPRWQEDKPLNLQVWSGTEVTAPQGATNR
Chain of Histamine H2 receptor (Cavia porcellus) (P47747 whole entry): as above

In general, IC50 refers to the midpoint of a concentration-inhibition curve. Read a low IC50 as inhibition by little substance. Broadly, the MIC is the least concentration at which growth counts as inhibited. Read a high MIC as weaker potency. Compound `CN(C)Cc1cc(OC/C=C\C/N=c2\c(O)c(O)c2=N)cs1` gave a concentration for half-maximal inhibition (IC50) against Histamine H2 receptor of 0.685 µM. In the assay on Helicobacter pylori, this compound returned an MIC of 100 mg/L (≈ 311 µM). For `CC(C)/N=c1\c(O)c(O)\c1=N/C/C=C\COc1csc(CN2CCCCC2)c1` the same measures were 1.93 µM and 12.5 mg/L (≈ 31 µM). For `COCC/N=c1\c(O)c(O)\c1=N/C/C=C\COc1csc(CN2CCCCC2)c1` the same measures were 1.14 µM and > 100 mg/L. `CN/C(=N\CCSCc1nc[nH]c1C)NC#N` [CIMETIDINE]: the MIC against Helicobacter pylori is > 100 mg/L.

In turn, `Nc1c(NC/C=C\COc2csc(CN3CCCCC3)c2)c(=O)c1=O` had a half-inhibitory concentration (IC50) against Histamine H2 receptor of 0.443 µM. Also, inhibition of growth in the assay on Helicobacter pylori (MIC) required 100 mg/L (≈ 277 µM). In general, inhibition refers to the relative decrease from the control value, in per cent. Low values mean a response near the control, high ones a response far below the control. `O=c1c(NC/C=C\COc2csc(CN3CCCCC3)c2)c(NCC(F)(F)C(F)(F)C(F)(F)F)c1=O`: the MIC against Helicobacter pylori amounted to 6.25 mg/L (≈ 11.5 µM). In assay [1], this compound came in with an inhibition of 39%. Consider `CN(C)CC/N=c1\c(O)c(O)\c1=N/C/C=C\COc1csc(CN2CCCCC2)c1`, for which the IC50 at Histamine H2 receptor is 0.809 µM. Also, the MIC against Helicobacter pylori was > 100 mg/L. At Histamine H2 receptor, `C/N=c1\c(O)c(O)\c1=N/C/C=C\COc1csc(CN2CCCCC2)c1` had an IC50 of 1.84 µM. In the assay on Helicobacter pylori, the MIC turned out to be 12.5 mg/L (≈ 33.3 µM). For `N#CCCNc1c(NC/C=C\COc2csc(CN3CCCCC3)c2)c(=O)c1=O` the same measures were 0.748 µM and 25 mg/L (≈ 60.3 µM). For the compound `O=c1c(NC/C=C\COc2csc(CN3CCCCC3)c2)c(NCCF)c1=O`, half-maximal inhibition at Histamine H2 receptor (IC50) required 1.06 µM. In the assay on Helicobacter pylori, this compound gave an MIC of 1.56 mg/L (≈ 3.83 µM). The like results for `CC(=O)OCC(=O)NCCCOc1cccc(CN2CCCCC2)c1` [ROXATIDINE ACETATE] were, in that order, 4.1 µM and > 100 mg/L. Regarding `O=c1c(NC/C=C\COc2csc(CN3CCCCC3)c2)c(NCC(F)(F)C(F)(F)F)c1=O`, it took 25 mg/L (≈ 50.7 µM) to inhibit growth with Helicobacter pylori (MIC). The compound further came in with an inhibition in assay [1] of 43%. On Histamine H2 receptor, `C=CCNc1c(NC/C=C\COc2csc(CN3CCCCC3)c2)c(=O)c1=O` showed an IC50 of 1.27 µM. Besides, the MIC in the assay on Helicobacter pylori is > 100 mg/L. For `CN/C(=C/[N+](=O)[O-])NCCSCc1ccc(CN(C)C)o1` [RANITIDINE] the same measures were 3.34 µM and > 100 mg/L.
